Measurements taken from US7189758B2, “Glucocorticoid mimetics, methods of making them, pharmaceutical formulations, and uses thereof” (Boehringer Ingelheim Pharmaceuticals, Inc., priority 2002, dated 2007).

Assays:
[1] = target: T1, human glucocorticoid receptor (GR) complex (Homo sapiens, UniProt P04150); test: Glucocorticoid receptor competitive binding assay (fluorescence polarization, TAMRA-labeled dexamethasone probe); details: result in words only; IC50 values not given
T1 construct: made in house; host or cells: insect cells (baculovirus expression), used as crude lysate
T1 sequence (P04150 1-777): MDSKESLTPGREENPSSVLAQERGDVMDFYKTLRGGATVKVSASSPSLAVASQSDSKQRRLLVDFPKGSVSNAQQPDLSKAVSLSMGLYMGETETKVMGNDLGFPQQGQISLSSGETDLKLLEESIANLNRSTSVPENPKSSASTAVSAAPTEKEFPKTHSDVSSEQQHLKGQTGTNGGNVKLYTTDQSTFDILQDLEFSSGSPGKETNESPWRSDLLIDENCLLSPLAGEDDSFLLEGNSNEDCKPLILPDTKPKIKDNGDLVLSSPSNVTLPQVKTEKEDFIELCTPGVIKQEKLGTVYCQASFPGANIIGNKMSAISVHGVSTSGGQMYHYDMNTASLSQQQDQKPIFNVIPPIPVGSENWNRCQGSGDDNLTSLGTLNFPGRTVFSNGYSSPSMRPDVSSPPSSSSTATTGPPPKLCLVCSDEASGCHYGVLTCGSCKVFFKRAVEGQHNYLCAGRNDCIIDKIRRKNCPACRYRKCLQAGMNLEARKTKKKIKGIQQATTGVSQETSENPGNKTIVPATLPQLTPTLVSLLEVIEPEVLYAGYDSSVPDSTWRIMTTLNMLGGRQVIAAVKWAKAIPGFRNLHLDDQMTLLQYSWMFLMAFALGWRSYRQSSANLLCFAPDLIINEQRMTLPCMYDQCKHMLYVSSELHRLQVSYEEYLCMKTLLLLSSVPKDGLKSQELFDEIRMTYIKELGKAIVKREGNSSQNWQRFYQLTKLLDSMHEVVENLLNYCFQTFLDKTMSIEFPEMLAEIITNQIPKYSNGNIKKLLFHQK
Protocol: Compounds of the invention were evaluated for binding to the steroid receptor by a fluorescence polarization competitive binding assay.
A. Glucocorticoid Receptor Competitive Binding Assay
Step 1. Characterization of the Fluorescent Probe
The wavelengths for maximum excitation and emission of the fluorescent probe should first be measured. An example of such a probe is rhodamine (TAMRA)-labeled dexamethasone.
The affinity of the probe for the steroid receptor was then determined in a titration experiment. The fluorescence polarization value of the probe in assay buffer was measured on an SLM-8100 fluorometer using the excitation and emission maximum values described above. Aliquots of expression vector lysate were added and fluorescence polarization was measured after each addition until no further change in polarization value was observed. Non-linear least squares regression analysis was used to calculate the dissociation constant of the probe from the polarization values obtained for lysate binding to the probe.
Step 2. Screening for Inhibitors of Probe Binding
This assay uses fluorescence polarization (FP) to quantitate the ability of test compounds to compete with tetramethyl rhodamine (TAMRA)-labeled dexamethasone for binding to a human glucocorticoid receptor (GR) complex prepared from an insect expression system. The assay buffer was: 10 mM TES, 50 mM KCl, 20 mM Na2MoO4.2H2O, 1.5 mM EDTA, 0.04% w/v CHAPS, 10% v/v glycerol, 1 mM dithiothreitol, pH 7.4. Test compounds were dissolved to 1 mM in neat DMSO and then further diluted to 10× assay concentration in assay buffer supplemented with 10% v/v DMSO. Test compounds were serially diluted at 10× assay concentrations in 10% DMSO-containing buffer in 96-well polypropylene plates. Binding reaction mixtures were prepared in 96-well black Dynex microtiter plates by sequential addition of the following assay components to each well: 15 μL of 10× test compound solution, 85 μL of GR-containing baculovirus lysate diluted 1:170 in assay buffer, and 50 μL of 15 nM TAMRA-labeled dexamethasone. Positive controls were reaction mixtures containing no test compound; negative controls (blanks) were reaction mixtures containing 0.7 μM to 2 μM dexamethasone. […] IC50 values were determined by iterative non-linear curve fitting of the FP signal data to a 4-parameter logistic equation.

[2] = system: glucocorticoid receptor; details: in one or more of the above assays; assay not specified
Protocol: Evaluation of agonist or antagonist activity of compounds binding to the glucocorticoid receptor may be determined by any of the assays.
3. Modulation of Tyrosine Aminotransferase (TAT) Induction in Rat Hepatoma Cells
Testing of compounds for agonist or antagonist activity in induction of tyrosine aminotransferase (TAT) in rat hepatoma cells.
H4-II-E-C3 cells were incubated overnight in 96 well plates (20,000 cells/100 μL/well) in MEM medium containing 10% heat inactivated FBS and 1% nonessential amino acids. On the next day, cells were stimulated with the indicated concentrations of dexamethasone or test compound (dissolved in DMSO, final DMSO concentration 0.2%) for 18 hours. Control cells were treated with 0.2% DMSO. After 18 hours, the cells were lysed in a buffer containing 0.1% Triton X-100 and the TAT activity was measured in a photometric assay using tyrosine and alpha-ketoglutarate as substrates.
For measuring antagonist activity, the hepatoma cells were pre-stimulated by addition of dexamethasone (concentration ranges from 3×10^−9 M to 3×10^−8 M) shortly before the test compound was applied to the cells.
4. Modulation of MMTV-Luc Induction in HeLa Cells
Testing of compounds for agonist or antagonist activity in stimulation of MMTV-(mouse mammary tumor virus) promoter in HeLa cells. […]

Compound | activity in the GR binding assay [1] | activity as antagonists of the glucocorticoid receptor function [2]
CC(C)(CC(O)(Cc1ccccc1)C(=O)Nc1ccc2c(c1)COC2=O)c1ccccc1 (centres unmarked) [2-Benzyl-2-hydroxy-4-methyl-4-phenylpentanoic acid (1-oxo-1,3-dihydroisobenzofuran-5-yl)amide] | potent activity | activity as antagonists
CC(C)(CC(O)(CC1CCCCC1)C(=O)Nc1ccc2c(c1)COC2=O)c1ccccc1 (centres unmarked) [2-Cyclohexylmethyl-2-hydroxy-4-methyl-4-phenylpentanoic acid (1-oxo-1,3-dihydroisobenzofuran-5-yl)amide] | potent activity | activity as antagonists
COc1ccc(F)cc1C(C)(C)CC(O)(Cc1ccccc1C)C(=O)Nc1ccc2c(c1)COC2=O (centres unmarked) [4-(5-Fluoro-2-methoxyphenyl)-2-hydroxy-4-methyl-2-(2-methylbenzyl)pentanoic acid (1-oxo-1,3-dihydroisobenzofuran-5-yl)amide] | potent activity | –
